Source: ChEMBL document CHEMBL5131433, “Novel benzothiazole-based dual VEGFR-2/EGFR inhibitors targeting breast and liver cancers: Synthesis, cytotoxic activity, QSAR and molecular docking studies” (Bioorg Med Chem Lett, 2022)

Legend:
MCF7 = assay: cells; details: Homo sapiens, MCF7, 72 h
Description: Anticancer activity against human MCF7 cells assessed as inhibition of cell growth incubated for 3 days by MTT assay

HepG2 = assay: cells; details: Homo sapiens, HepG2, 72 h
Description: Anticancer activity against human HepG2 cells assessed as inhibition of cell growth incubated for 3 days by MTT assay

[1] = Cytotoxicity against human WI-38 cells assessed as inhibition of cell growth incubated for 3 days by MTT assay; assay type: toxicity, cell-based
[2] = target: Vascular endothelial growth factor receptor 2 (Homo sapiens, UniProt P35968); assay: Inhibition of VEGFR2 (unknown origin)
[3] = target: Epidermal growth factor receptor (Homo sapiens, UniProt P00533); assay: Inhibition of EGFR (unknown origin)
MDA-MB-231 = assay: Anticancer activity against human MDA-MB-231 cells assessed as inhibition of cell growth incubated for 3 days by MTT assay; assay type: functional, cell-based; details: MDA-MB-231, 72 h

Chain of Epidermal growth factor receptor (P00533 whole entry): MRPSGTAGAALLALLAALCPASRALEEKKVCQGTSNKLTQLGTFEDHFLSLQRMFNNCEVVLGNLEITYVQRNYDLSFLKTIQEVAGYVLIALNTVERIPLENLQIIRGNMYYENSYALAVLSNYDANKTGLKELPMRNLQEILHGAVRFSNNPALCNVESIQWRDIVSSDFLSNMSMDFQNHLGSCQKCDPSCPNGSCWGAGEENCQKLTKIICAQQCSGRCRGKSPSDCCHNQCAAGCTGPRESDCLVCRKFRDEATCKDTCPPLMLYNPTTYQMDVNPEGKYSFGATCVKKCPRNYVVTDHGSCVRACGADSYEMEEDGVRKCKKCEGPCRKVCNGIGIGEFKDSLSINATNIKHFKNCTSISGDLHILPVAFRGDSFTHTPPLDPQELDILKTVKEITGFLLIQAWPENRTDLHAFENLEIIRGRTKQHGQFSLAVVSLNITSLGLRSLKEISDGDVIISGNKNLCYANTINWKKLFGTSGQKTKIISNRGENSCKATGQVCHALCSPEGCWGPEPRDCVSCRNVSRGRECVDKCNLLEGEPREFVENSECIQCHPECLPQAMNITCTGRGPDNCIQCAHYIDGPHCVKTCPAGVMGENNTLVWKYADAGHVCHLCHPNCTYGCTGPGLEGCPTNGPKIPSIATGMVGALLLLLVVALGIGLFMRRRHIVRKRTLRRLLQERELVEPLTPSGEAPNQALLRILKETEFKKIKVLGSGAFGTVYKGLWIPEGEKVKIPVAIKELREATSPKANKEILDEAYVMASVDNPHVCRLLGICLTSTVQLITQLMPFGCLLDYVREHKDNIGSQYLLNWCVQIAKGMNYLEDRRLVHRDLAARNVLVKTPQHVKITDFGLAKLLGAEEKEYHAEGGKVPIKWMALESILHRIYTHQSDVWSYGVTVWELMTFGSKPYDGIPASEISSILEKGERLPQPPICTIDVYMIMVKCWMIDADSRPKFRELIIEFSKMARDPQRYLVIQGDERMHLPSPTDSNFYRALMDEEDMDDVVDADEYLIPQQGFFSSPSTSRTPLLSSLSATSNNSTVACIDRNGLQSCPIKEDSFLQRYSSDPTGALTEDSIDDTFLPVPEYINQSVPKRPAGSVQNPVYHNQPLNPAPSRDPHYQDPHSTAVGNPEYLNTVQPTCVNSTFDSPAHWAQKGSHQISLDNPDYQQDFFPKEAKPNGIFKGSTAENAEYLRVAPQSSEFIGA
Chain of Vascular endothelial growth factor receptor 2 (P35968 whole entry): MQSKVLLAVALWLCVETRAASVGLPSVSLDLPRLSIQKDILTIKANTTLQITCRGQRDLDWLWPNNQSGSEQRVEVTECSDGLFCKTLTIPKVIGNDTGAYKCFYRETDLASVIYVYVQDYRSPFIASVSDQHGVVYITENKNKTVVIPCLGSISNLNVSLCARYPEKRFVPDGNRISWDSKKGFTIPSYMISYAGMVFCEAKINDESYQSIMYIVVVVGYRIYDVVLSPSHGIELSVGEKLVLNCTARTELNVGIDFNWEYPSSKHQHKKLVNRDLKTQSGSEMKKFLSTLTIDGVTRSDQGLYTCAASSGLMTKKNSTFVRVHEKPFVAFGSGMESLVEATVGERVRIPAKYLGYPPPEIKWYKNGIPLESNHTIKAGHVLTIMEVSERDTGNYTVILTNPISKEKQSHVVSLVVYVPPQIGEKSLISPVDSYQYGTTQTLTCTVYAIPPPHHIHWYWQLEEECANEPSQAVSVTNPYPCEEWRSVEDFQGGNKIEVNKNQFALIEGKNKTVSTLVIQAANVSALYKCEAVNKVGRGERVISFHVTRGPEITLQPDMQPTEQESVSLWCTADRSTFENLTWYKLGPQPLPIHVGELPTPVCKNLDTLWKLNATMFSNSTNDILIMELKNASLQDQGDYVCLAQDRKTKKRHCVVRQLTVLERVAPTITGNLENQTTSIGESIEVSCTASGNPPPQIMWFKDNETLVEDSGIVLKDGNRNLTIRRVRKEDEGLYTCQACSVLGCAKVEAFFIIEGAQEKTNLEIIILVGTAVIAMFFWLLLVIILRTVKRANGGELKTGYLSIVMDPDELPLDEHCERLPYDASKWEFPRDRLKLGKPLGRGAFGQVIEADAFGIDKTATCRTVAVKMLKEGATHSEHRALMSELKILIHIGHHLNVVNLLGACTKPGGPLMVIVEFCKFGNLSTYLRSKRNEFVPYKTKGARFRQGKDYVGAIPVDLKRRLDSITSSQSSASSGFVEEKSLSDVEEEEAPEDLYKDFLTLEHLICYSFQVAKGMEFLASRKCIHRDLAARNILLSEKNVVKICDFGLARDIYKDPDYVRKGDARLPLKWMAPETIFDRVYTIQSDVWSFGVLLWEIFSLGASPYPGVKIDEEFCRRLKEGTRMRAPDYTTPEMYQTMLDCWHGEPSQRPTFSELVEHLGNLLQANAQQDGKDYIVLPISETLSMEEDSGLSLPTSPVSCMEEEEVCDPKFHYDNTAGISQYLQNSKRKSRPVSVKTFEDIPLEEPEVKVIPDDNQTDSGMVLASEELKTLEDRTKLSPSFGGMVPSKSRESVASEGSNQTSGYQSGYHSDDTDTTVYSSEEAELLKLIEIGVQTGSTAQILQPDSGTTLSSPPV

Compound	IC50 (MCF7)	IC50 (HepG2)	IC50 at 3 days [1]	IC50 [2]	IC50 [3]	IC50 (MDA-MB-231)
COc1cc(-c2nc3ccccc3s2)ccc1OCC(=O)NNC(=O)CN[C@@H](CCSC)C(=O)O	1.95 µM	3.78 µM	–	–	–	–
COc1cc(-c2nc3ccccc3s2)ccc1OCC(=O)NNC(=O)CN[C@@H](Cc1c[nH]c2ccccc12)C(=O)O	0.83 µM	2.58 µM	60.8 µM	0.162 µM	0.209 µM	10.5 µM
COc1cc(-c2nc3ccccc3s2)ccc1OCC(=O)NNC(=O)CNC(=N)NCCC[C@H](N[N+](=O)[O-])C(=O)O	1.96 µM	3.49 µM	–	–	–	–
COc1cc(-c2nc3ccccc3s2)ccc1OCC(=O)NNC(O)CN(C)CC(=O)O (stereo not drawn)	1.96 µM	3.03 µM	–	–	–	–
COc1cc(-c2nc3ccccc3s2)ccc1OCC(=O)NNC(=O)CCl	0.78 µM	2.89 µM	–	–	–	–
CCOC(=O)[C@H](Cc1c[nH]cn1)NCC(=O)NNC(=O)COc1ccc(-c2nc3ccccc3s2)cc1OC	0.74 µM	2.68 µM	89.4 µM	0.152 µM	0.157 µM	5.67 µM
CCOC(=O)[C@H](CS(=O)(=O)O)NCC(=O)NNC(=O)COc1ccc(-c2nc3ccccc3s2)cc1OC	1.99 µM	3.36 µM	–	–	–	–
COc1cc(-c2nc3ccccc3s2)ccc1OCC(=O)NNC(=O)CN1CCC[C@H]1C(=O)O	0.84 µM	2.65 µM	68.6 µM	0.188 µM	0.342 µM	8.88 µM
CCOC(=O)CN(C)CC(=O)NNC(=O)COc1ccc(-c2nc3ccccc3s2)cc1OC	1.98 µM	3.18 µM	–	–	–	–
CCOC(=O)[C@H](CS)N(CC(=O)NNC(=O)COc1ccc(-c2nc3ccccc3s2)cc1OC)C(C)=O	1.89 µM	3.01 µM	–	–	–	–
CC[C@H](C)[C@H](NCC(=O)NNC(=O)COc1ccc(-c2nc3ccccc3s2)cc1OC)C(=O)O	1.71 µM	3.54 µM	–	–	–	–
COc1cc(-c2nc3ccccc3s2)ccc1OCC(=O)NNC(=O)CN[C@@H](CS)C(=O)O	1.23 µM	3.12 µM	–	–	–	–
CCOC(=O)[C@@H]1CCCN1CC(=O)NNC(=O)COc1ccc(-c2nc3ccccc3s2)cc1OC	0.77 µM	2.8 µM	75.1 µM	0.163 µM	0.109 µM	7.28 µM
COc1cc(-c2nc3ccccc3s2)ccc1OCC(=O)NNC(=O)CN[C@@H](Cc1c[nH]cn1)C(=O)O	0.89 µM	2.8 µM	49.5 µM	0.171 µM	0.305 µM	11 µM
CCOC(=O)[C@H](CCCNC(=N)NCC(=O)NNC(=O)COc1ccc(-c2nc3ccccc3s2)cc1OC)N[N+](=O)[O-]	1.95 µM	3.73 µM	–	–	–	–
CC[C@H](C)[C@@H](NCC(=O)NNC(=O)COc1ccc(-c2nc3ccccc3s2)cc1OC)C(=O)O	1.79 µM	3.99 µM	–	–	–	–
COc1cc(-c2nc3ccccc3s2)ccc1OCC(=O)NNC(=O)CN[C@@H](CS(=O)(=O)O)C(=O)O	1.87 µM	3.69 µM	–	–	–	–
CCOC(=O)[C@H](NCC(=O)NNC(=O)COc1ccc(-c2nc3ccccc3s2)cc1OC)[C@@H](C)CC	2.9 µM	3.97 µM	–	–	–	–
COc1cc(-c2nc3ccccc3s2)ccc1OCC(=O)NNC(=O)CN(C(C)=O)[C@@H](CS)C(=O)O	1.75 µM	3.42 µM	–	–	–	–
CCOC(=O)[C@H](Cc1c[nH]c2ccccc12)NCC(=O)NNC(=O)COc1ccc(-c2nc3ccccc3s2)cc1OC	0.73 µM	2.54 µM	92.7 µM	0.178 µM	0.114 µM	5.45 µM
CCOC(=O)[C@@H](NCC(=O)NNC(=O)COc1ccc(-c2nc3ccccc3s2)cc1OC)[C@@H](C)CC	1.95 µM	3.46 µM	–	–	–	–
CCOC(=O)[C@H](CS)NCC(=O)NNC(=O)COc1ccc(-c2nc3ccccc3s2)cc1OC	2.88 µM	3.76 µM	–	–	–	–
CCOC(=O)[C@H](CCSC)NCC(=O)NNC(=O)COc1ccc(-c2nc3ccccc3s2)cc1OC	1.76 µM	3.33 µM	–	–	–	–
COc1cccc2c1C(=O)c1c(O)c3c(c(O)c1C2=O)C[C@@](O)(C(=O)CO)C[C@@H]3O[C@H]1C[C@H](N)[C@H](O)[C@H](C)O1 [DOXORUBICIN]	–	2.75 µM	79.7 µM	–	–	7.46 µM
